Patent US9492467B2, “Rapid-acting insulin formulation comprising an oligosaccharide” (ADOCIA, priority 2011, dated 2016)
Where a name gives a salt, the structure may show the parent alone.

What was measured:
[1] = target: T1, insulin lispro (hexameric form R6) (Homo sapiens, UniProt P01308, K53P/P52K); assay: State of association of insulin lispro by circular dichroism (CD signal at 251 nm); type: physicochemical; conditions: added to Humalog, FIG. 27
T1 construct: purchased Eli Lilly Humalog®
Excerpt: Circular dichroism makes it possible to study the secondary and quaternary structure of insulin. The insulin monomers organize into dimers and hexamers. […] There are two hexameric forms, form R6 and form T6. […] Loss of the CD signal at 251 nm is connected with destabilization of the hexamer (and therefore the first sign of transformation of the hexamer to dimer).

[2] = target: human insulin (hexameric form) (Homo sapiens, UniProt P01308); assay: State of association of human insulin by circular dichroism (CD signal at 276 nm); type: physicochemical; conditions: absence of m-cresol, FIG. 28
Excerpt: Loss of the CD signal at 276 nm is therefore characteristic of destabilization of the hexamer to dimers or monomers.

[3] = pH; cited from earlier work
[4] = system: humans; conditions: injected subcutaneously; cited from earlier work
[5] = form of hexamers, 4° C.; cited from earlier work

T1 sequence (P01308 25-54 P52K/K53P limits assumed): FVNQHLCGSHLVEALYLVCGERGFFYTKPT
T1 sequence (P01308 90-110 limits assumed): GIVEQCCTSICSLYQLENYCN
Chain of human insulin (hexameric form) (P01308 25-54 limits assumed): as the sequence (P01308 25-54 P52K/K53P limits assumed) above, with K28P, P29K counted along it

Q: What does the source list for `O=C(O)CN(CCN(CC(=O)O)CC(=O)O)CC(=O)O` [EDTA, reference compound]?
A: effect on the CD signal at 251 nm / R6 form of insulin lispro [1]: completely destructures the R6 form of insulin lispro; effect on the hexameric structure of human insulin (CD signal at 276 nm) [2]: complete dissociation of the hexamer to dimers

Q: Which “effect on the CD signal at 251 nm / R6 form of insulin lispro” value [1] does the source give for `O=C(O)CC(O)(CC(=O)O)C(=O)O` [citrate, sodium citrate] here?
A: Its value is “almost no effect”.

Q: Which isoelectric point [3] does the source give for “Insulin lispro: rapid-acting insulin analog, active of Humalog®” here?
A: The isoelectric point was 5.3.

Q: What does the source list for “human insulin: insulin obtained by synthesis or recombination whose peptide sequence is the sequence of human insulin”?
A: hypoglycemic effect after [4]: 60 min; stable for [5]: ~2 years
